SMILES strings stand for the structures.

Holding throughout (format): cell-based
Assay [1] has as its system translocation of the LC3 protein in Hela GFP-LC3 cells. The assay can be described thus: Study of the translocation of the LC3 protein in Hela human cells, measured by image analysis cytometry (Test C, autophagy). To be noted: Homo sapiens, HeLa, 2 h, Hela GFP-LC3 cells with LC3 granulations, EBSS + 10 μM hydroxychloroquine, absolute IC50.
The test system of assay [2] is AKT protein phosphorylated on serine 473 (pAKT-S473) in PC3 human prostate carcinoma line. The assay can be described thus: Study of pAKT expression in PC3 human prostate carcinoma cells measured by western blotting (Test A). To be noted: PC-3, 1 to 2 hours incubation, approximate absolute IC50, mean of two experiments. On the procedure:
The inhibitory activity of the molecules on AKT phosphorylation is measured either by western blotting using the technique described below, or by the MSD Multi-spot Biomarker detection technique from Meso Scale Discovery also described below. […] Study of pAKT Expression in Pc3Human Prostate Carcinoma Cells Measured by Western Blotting (Test A): This test is based on measuring the expression of the AKT protein phosphorylated on […]. […] On day 2, the cells are incubated in the presence or absence of the test products for 1 to 2 hours at 37° C. in the presence of 5% CO2. The molecules, diluted in dimethyl sulphoxide (DMSO Sigma #D2650), are added from a 10-times concentrated stock solution, the final percentage of DMSO being 0.1%. […] After this incubation, the cells are lysed for the preparation of the proteins. […] The lysate is centrifuged for 10 min at 6000 rpm. 155 μl of supernatant are recovered. 150 μl are incubated for denaturation for 5 min at 95° C. in the presence of 4× NuPAGE LDS Sample Buffer diluted 4-fold (InVitrogen ref NP0007) and of 10× NuPAGE Sample Reducing Agent diluted 10-fold (InVitrogen ref NP0009). These samples are then frozen at -20° C. […] The gel is then transferred on to an Invitrolon PVDF membrane (Invitrogen #LC2007) permeabilised beforehand for a few seconds in ethanol (Ethanol Fischer Scientific #E/0600DF/15). The transfer is carried out in a Biorad tank at 30 volts overnight or at 60 volts for 3 hours, in the presence of 20× NUPAGE Transfer Buffer diluted 20-fold (InVitrogen ref NP0006). The membrane is then saturated in saturating solution composed of TBS (10× Tris Buffered Saline, Sigma #T5912, diluted 10-fold), 0.1% Tween 20 (Sigma #P5927) and 3% BSA (Bovine Serum Albumin Fraction V, Sigma #A4503) for 6 h after overnight transfer or else for 1 h after transfer for a period of 3 h. […] Two rinses for 5 min in washing solution composed of TBS and 0.1% Tween 20 are carried out before hybridisation of the secondary antibodies. The secondary antibodies are diluted to 1/10000th for the rabbit anti-Mouse IgG HRP antibody ([…] Promega) and to 1/10000th for the goat anti-Rabbit IgG HRP antibody ([…] Promega) in saturating solution, and then shaken for 1 h at ambient temperature. Two rinses for 30 min in washing solution are carried out and then a rinse for 5 min in H2O is carried out in order to eliminate the remaining Tween 20. […] The luminescence is read with the FujiFilm device (Ray Test). The FUJI device measures the total luminescence signal obtained (AU) for each band selected. It then subtracts the background noise (BG) proportional to the size of the band selected (Area), said background noise being calculated from a specific background noise band, with a view to obtaining the specific signal (AU-BG) for each band. The band obtained in the absence of product and in the presence of 0.1% DMSO is considered to be the 100% signal. The software calculates the % specific activity (Ratio) obtained for each band selected as a function of this 100% signal. The percentage inhibition is calculated for each concentration according to the formula (100%-Ratio). Two independent experiments make it possible to calculate the mean of the percentages of inhibition obtained at a given concentration for the products tested only at one concentration. […] Two independent experiments make it possible to calculate the mean of the IC50 values.

Assay [3] has as its system P. falciparum (highly chloroquine-resistant strain Fcm29-Cameroon). The assay can be described thus: Antimalarial activity test (radioactive micromethod of Desjardins). To be noted: Plasmodium falciparum, Erythrocyte, infected human erythrocytes, 48 h, tritiated hypoxanthine incorporation. On the procedure: Antimalarial Activity Test
The P. falciparum strains are cultured in solutions of RPM! […] For each assay, the parasites are incubated with selected concentrations of drugs for 48 h at 37° C. in a humid atmosphere and at 5% CO2. Artemisinin, artesunate and also chloroquine diphosphate are used as reference molecules. The first dilution of the drug is prepared at 1 mg/ml in dimethyl sulphoxide. The range of successive daughter solution dilutions is also prepared in dimethyl sulphoxide. […] These dilutions are then added to the parasites in culture in the microplates. […] The growth of the parasites is measured by incorporation of tritiated hypoxanthine (added 24 h after the beginning of the exposure to the drug) compared with the incorporation in the absence of drug.

In assay [4] the test system is AKT protein phosphorylated on serine 473 (P-AKT-S473) in PC3 human prostate carcinoma line. The assay can be described thus: Study of pAKT expression in PC3 human prostate carcinoma cells measured by the MSD Multi-spot Biomarker Detection technique (Test B). To be noted: Homo sapiens, PC-3, P-AKT-S473 in PC3 cells, MSD sandwich immunoassay, 1 to 2 h incubation; absolute IC50, mean of 2 experiments.

With `O=c1cc(N2CCOCC2)nc2n1CC[C@@H](C(F)(F)F)N2c1ccncc1` [Example 20, (S)-2-morpholin-4-yl-9-pyridin-4-yl-8-trifluoromethyl-6,7,8,9-tetrahydropyrimido[1,2-a]pyrimidin-4-one], the IC50 (in general, the concentration that inhibits the measured activity by half) is above 1 µM in assay [1] and 0.06 µM in assay [2].
Regarding `O=c1cc(N2CCOCC2)nc2n1CC[C@@H](C(F)(F)F)N2c1ccccc1` [Example 12, (8S)-2-(morpholin-4-yl)-9-phenyl-8-(trifluoromethyl)-6,7,8,9-tetrahydro-4H-pyrimido[1,2-a]pyrimidin-4-one], in assay [3], the inhibition (commonly the share of the control response that was lost under treatment) at 1 µM turned out to be 59%. Further, the IC50 in assay [1] came to 0.441 µM; in assay [2] it was 6.6 µM.
Regarding `COc1ccc(CCN2c3nc(N4CCOCC4)cc(=O)n3CCC2C(F)(F)F)cc1` (racemic) [Example 2, (R,S)-9-[2-(4-methoxyphenyl)ethyl]-2-morpholin-4-yl-8-trifluoromethyl-6,7,8,9-tetrahydropyrimido[1,2-a]pyrimidin-4-one], the IC50 worked out at 0.016 µM in assay [1] and 0.315 µM in assay [2].
Taken in the same sequence, the figures for `C[C@@H](c1ccccc1)N1c2nc(N3CCOCC3)cc(=O)n2CC[C@H]1C(F)(F)F` (single isomer, unassigned) [Example 8, (8S)-2-(morpholin-4-yl)-9-[(1R or 1S)-1-phenylethyl]-8-(trifluoromethyl)-6,7,8,9-tetrahydro-4H-pyrimido[1,2-a]pyrimidin-4-one] were 0.462 µM and 0.075 µM.
The corresponding values for `O=C(c1ccccc1)N1c2nc(N3CCOCC3)cc(=O)n2CC[C@H]1C(F)(F)F` [Example 18, (S)-9-Benzoyl-2-morpholin-4-yl-8-trifluoromethyl-6,7,8,9-tetrahydropyrimido[1,2-a]pyrimidin-4-one] are above 1 µM and 0.335 µM.
The corresponding values for `O=c1cc(N2CCOCC2)nc2n1CC[C@@H](C(F)(F)F)N2Cc1ccc(F)cc1` [Example 17, (8S)-9-(4-fluorobenzyl)-2-(morpholin-4-yl)-8-(trifluoromethyl)-6,7,8,9-tetrahydro-4H-pyrimido[1,2-a]pyrimidin-4-one] are 0.119 µM and 0.35 µM.
For `COc1ccc(CCN2c3nc(N4CCOCC4)cc(=O)n3CC[C@H]2C(F)(F)F)cc1` [Example 1, (S)-9-[2-(4-methoxyphenyl)ethyl]-2-morpholin-4-yl-8-trifluoromethyl-6,7,8,9-tetrahydropyrimido[1,2-a]pyrimidin-4-one], the inhibition at 0.1 µM in assay [3] amounted to 79%. Further, in assay [3], the inhibition at 1 µM turned out to be 99%. In addition, the figures for the 50% inhibitory concentration (IC50) in assay [1] and in assay [2] were 0.011 µM and 0.015 µM, respectively.
`C[C@@H](c1ccc(Br)cc1)N1c2nc(N3CCOCC3)cc(=O)n2CC[C@H]1C(F)(F)F` (single isomer, unassigned) [Example 10, (8S)-9-[R1R or 1S)-1-(4-bromophenyl)ethyl]-2-(morpholin-4-yl)-8-(trifluoromethyl)-6,7,8,9-tetrahydro-4H-pyrimido[1,2-a]pyrimidin-4-one]: the results for the IC50 in assay [1] and in assay [2] were 0.249 µM and 0.357 µM, respectively.
`O=c1cc(N2CCOCC2)nc2n1CC[C@@H](C(F)(F)F)N2c1ccccc1F` [Example 15, (8S)-9-(2-fluorophenyl)-2-(morpholin-4-yl)-8-(trifluoromethyl)-6,7,8,9-tetrahydro-4H-pyrimido[1,2-a]pyrimidin-4-one]: the IC50 is 0.007 µM in assay [4], above 1 µM in assay [1] and 2.71 µM in assay [2].
With `C[C@H](c1cccc(F)c1)N1c2nc(N3CCOCC3)cc(=O)n2CC[C@H]1C(F)(F)F` (single isomer, unassigned) [Example 16, (8S)-9-[(1R or 1S)-1-(3-fluorophenyl)ethyl]-2-(morpholin-4-yl)-8-(trifluoromethyl)-6,7,8,9-tetrahydro-4H-pyrimido[1,2-a]pyrimidin-4-one], the IC50 in assay [1] came to 0.187 µM; in assay [2], 0.041 µM.
For `O=c1cc(N2CCOCC2)nc2n1CC[C@@H](C(F)(F)F)N2Cc1ccccc1` [Example 4, (S)-9-benzyl-2-morpholin-4-yl-8-trifluoromethyl-6,7,8,9-tetrahydropyrimido[1,2-a]pyrimidin-4-one], in assay [3], the inhibition at 0.1 µM came to 19% and the inhibition at 1 µM was 97%. Moreover, the IC50 in assay [1] worked out at 0.569 µM. Also, the midpoint of inhibition in assay [2], the IC50, lay at 0.265 µM.
